# Measurements published in PubChem BioAssay (NCI).
#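 Compound exposure: 48 hours, 5 concentrations, 96-well plates. GI50 is the concentration that inhibits growth by half. TGI is the concentration that stops growth completely.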
# Columns and labels:
# Test in all cases: DTP human tumour cell line panel, 48 h
# ACHN renal = test system: ACHN renal
# CAKI-1 renal = test system: CAKI-1 renal
# CCRF-CEM leukemia = test system: CCRF-CEM leukemia
# HCT-15 colon = test system: HCT-15 colon
# NCI-H226 lung = test system: NCI-H226 lung
# SNB-19 CNS = test system: SNB-19 CNS
# UO-31 renal = test system: UO-31 renal
# RPMI-8226 leukemia = test system: RPMI-8226 leukemia
# BT-549 breast = test system: BT-549 breast
Structure (SMILES),TGI (ACHN renal),TGI (CAKI-1 renal),TGI (CCRF-CEM leukemia),TGI (HCT-15 colon),TGI (NCI-H226 lung),TGI (SNB-19 CNS),TGI (UO-31 renal),TGI (RPMI-8226 leukemia),GI50 (ACHN renal),GI50 (BT-549 breast),TGI (BT-549 breast),GI50 (CAKI-1 renal),GI50 (CCRF-CEM leukemia),GI50 (HCT-15 colon),GI50 (NCI-H226 lung),GI50 (RPMI-8226 leukemia),GI50 (SNB-19 CNS),GI50 (UO-31 renal)
CC(C)(C)c1cc(CCC(=O)Nc2ccc(Cl)cc2)nc(NC#N)n1,> 100 µM,> 100 µM,> 100 µM,> 100 µM,> 100 µM,> 100 µM,> 100 µM,–,–,–,–,–,–,–,–,–,–,–
Cc1ccc(NC(=O)CC(=O)n2nc(C)c(N=Nc3ccccc3C(=O)O)c2C)cc1,–,> 100 µM,> 100 µM,> 100 µM,–,> 100 µM,> 100 µM,> 100 µM,–,–,–,–,–,–,–,–,–,–
CCCC1N2CCCCC2[C@@H]2c3[nH]c4ccccc4c3CCN12 (stereo not given in full),> 100 µM,> 100 µM,> 100 µM,> 100 µM,–,> 100 µM,> 100 µM,> 100 µM,–,–,–,–,–,–,–,–,–,–
N#C/C(=C\c1ccc2ccccc2c1)c1ccccc1,98.3 µM,50 µM,78.1 µM,> 100 µM,> 100 µM,–,86.7 µM,> 100 µM,–,–,–,–,–,–,–,–,–,–
O=C(N/C(=C\c1cccc([N+](=O)[O-])c1)c1nc2ccc([N+](=O)[O-])cc2[nH]1)c1ccccc1,> 100 µM,> 100 µM,87.6 µM,> 100 µM,–,> 100 µM,58.9 µM,–,–,–,–,–,–,–,–,–,–,–
NC12CC3CC(C1)CC(C(=O)O)(C3)C2,> 100 µM,> 100 µM,> 100 µM,> 100 µM,–,> 100 µM,> 100 µM,> 100 µM,–,–,–,–,–,–,–,–,–,–
Cc1ccc2c(c1)Sc1c(ccc3ccccc13)N2,> 100 µM,> 100 µM,> 100 µM,> 100 µM,> 100 µM,> 100 µM,> 100 µM,> 100 µM,55.5 µM,28.5 µM,> 100 µM,15.3 µM,12.4 µM,1.45 µM,11.8 µM,13.4 µM,> 100 µM,3.82 µM
N#CC(C#N)=C1Nc2ccccc2S1,–,70.9 µM,> 100 µM,> 100 µM,76.8 µM,> 100 µM,> 100 µM,79.7 µM,–,–,–,24.5 µM,45.5 µM,48 µM,27.3 µM,33.6 µM,38.2 µM,39.1 µM
CS(=O)(=O)c1ccc(-n2nc(C(F)(F)F)cc2OC2CCCC2)cc1,56 µM,54.4 µM,> 100 µM,80.1 µM,> 100 µM,> 100 µM,> 100 µM,> 100 µM,22.4 µM,28.5 µM,73 µM,21.1 µM,38.3 µM,30.6 µM,34 µM,34.8 µM,48.7 µM,> 100 µM
COCCCNC(=O)C1C(=O)C(=O)N(CCCOC)C1=O (stereo not given),> 100 µM,> 100 µM,> 100 µM,> 100 µM,> 100 µM,> 100 µM,> 100 µM,> 100 µM,–,–,–,–,–,–,–,–,–,–
CN(C)CCNC(=O)c1cccc2ccc(-c3ccncc3)nc12,–,5.21 µM,15.5 µM,11.9 µM,–,9.5 µM,5.37 µM,–,–,–,–,–,–,–,–,–,–,–
CCCCCCCC(=O)OCC/C=C/C1OC1C1OC(=O)/C=C\C=C\c2nc(oc2C)/C=C(/C)CCC2OC2C1OC(=O)NC(C)=O (stereo not given),0.933 µM,1.56 µM,3.98 µM,8.88 µM,0.161 µM,1.16 µM,–,1.04 µM,0.0103 µM,0.0466 µM,0.168 µM,0.0664 µM,0.0651 µM,0.0558 µM,0.0426 µM,0.0241 µM,0.0605 µM,–
CC(=O)OCC1OC(NC(=S)N/N=C2\CC(c3ccccc3)Oc3ccccc32)C(OC(C)=O)C(OC(C)=O)C1OC(C)=O (stereo not given),> 100 µM,> 100 µM,> 100 µM,> 100 µM,> 100 µM,> 100 µM,> 100 µM,> 100 µM,–,–,–,–,–,–,–,–,–,–
CCOC(=O)/C(=C\c1ccccc1)C(=O)O,> 100 µM,> 100 µM,> 100 µM,> 100 µM,> 100 µM,> 100 µM,> 100 µM,> 100 µM,–,–,–,–,–,–,–,–,–,–
COc1ccc2c(c1)CCCN2c1c2ccccc2nc2ccccc12,> 100 µM,> 100 µM,71.6 µM,25.6 µM,–,> 100 µM,> 100 µM,4.98 µM,0.611 µM,0.49 µM,6.28 µM,0.383 µM,0.353 µM,0.314 µM,–,0.431 µM,0.546 µM,0.69 µM
O=C(O)CCSC(=O)Nc1ccc([N+](=O)[O-])cc1,> 100 µM,> 100 µM,> 100 µM,> 100 µM,–,> 100 µM,> 100 µM,> 100 µM,–,–,–,–,–,–,–,–,–,–
COc1ccc(NC(=O)CC(=O)N/N=C/c2ccc(N(CCC#N)S(C)(=O)=O)cc2)cc1,> 100 µM,> 100 µM,> 100 µM,> 100 µM,> 100 µM,–,> 100 µM,> 100 µM,–,–,–,–,–,–,–,–,–,–
CCOC(=S)SSSC(=S)OCC,41.9 µM,> 100 µM,> 100 µM,46.8 µM,> 100 µM,> 100 µM,–,61.1 µM,–,–,–,–,–,–,–,–,–,–
COc1cc(Nc2nc3ccccc3nc2-c2cccs2)cc(OC)c1OC,> 100 µM,–,> 100 µM,> 100 µM,> 100 µM,> 100 µM,> 10 µM,> 100 µM,–,–,–,–,–,–,–,–,–,–
O=[N+]([O-])c1ccc(C=NC2CCCCC2)cc1,> 100 µM,> 100 µM,> 100 µM,> 100 µM,> 100 µM,> 100 µM,> 100 µM,–,–,–,–,–,–,–,–,–,–,–
O=C(O)/C=C(\c1nc2ccc([N+](=O)[O-])cc2[nH]1)c1cc(Cl)ccc1O,10.6 µM,–,12.7 µM,20.3 µM,46.4 µM,> 100 µM,9.01 µM,37.7 µM,2.38 µM,2.3 µM,7.25 µM,–,2.51 µM,2.9 µM,2.32 µM,1.45 µM,3.5 µM,1.54 µM
NC(=O)COC(=O)c1c(Cl)nc2sccn12,> 100 µM,> 100 µM,> 31.6 µM,> 55.1 µM,> 100 µM,> 100 µM,> 100 µM,> 66.4 µM,–,–,–,–,–,–,–,–,–,–
